In patent publication US20230357179A1, “RAF KINASE INHIBITORS AND METHODS OF USE THEREOF” (Deciphera Pharmaceuticals, LLC, priority 2021, published 2023):
pIC50: −log10 of the molar value.

Columns and labels:
A-Raf kinase = biological target: T1, A-Raf kinase (Homo sapiens, UniProt P10398, Y301D/Y302D); experiment: Biochemical assay for A-Raf.1 (coupled pyruvate kinase/lactate dehydrogenase); settings: read-out: ARAF.1 IC50
T1 construct: purchased Sigma
Procedure, shortened: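 A-Raf (5.55 nM) phosphorylating 30.1 nM MEK with 1 mM ATP was monitored by pyruvate kinase/lactate dehydrogenase-coupled NADH oxidation at 340 nm for 6 h at 30° C, in pH 7.5 Tris buffer with 15 mM MgCl2, 1% DMSO. Rates from 4–5 h gave percent inhibition; IC50 by four-parameter fit.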

B-Raf kinase = biological target: T2, B-Raf kinase (Homo sapiens, UniProt P15056); experiment: Biochemical assay for B-Raf.1 (coupled pyruvate kinase/lactate dehydrogenase); settings: read-out: BRAF.1 IC50
T2 construct: GST (N); purchased Sigma
T2 sequence (P15056 416-766): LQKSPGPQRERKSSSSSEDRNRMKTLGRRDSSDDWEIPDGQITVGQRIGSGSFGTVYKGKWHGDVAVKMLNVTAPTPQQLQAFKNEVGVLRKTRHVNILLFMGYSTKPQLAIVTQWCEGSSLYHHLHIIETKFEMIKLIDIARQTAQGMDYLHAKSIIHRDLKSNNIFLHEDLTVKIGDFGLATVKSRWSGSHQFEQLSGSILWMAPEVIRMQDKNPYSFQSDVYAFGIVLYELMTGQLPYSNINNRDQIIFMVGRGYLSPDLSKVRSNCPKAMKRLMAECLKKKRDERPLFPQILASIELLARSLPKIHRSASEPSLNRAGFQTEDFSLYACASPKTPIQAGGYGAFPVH
Procedure, shortened: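 NADH oxidation followed at 340 nm in a pyruvate kinase/lactate dehydrogenase-coupled assay with 0.13 nM B-Raf, 30.1 nM MEK substrate, 1 mM ATP, pH 7.5 Tris buffer, 1% DMSO. Monitored 6 h at 30 °C; rate taken from 4–5 h. IC50 from four-parameter sigmoidal fit.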

B-Raf (V600E) kinase = biological target: T3, B-Raf (V600E) kinase (Homo sapiens, UniProt P15056, V600E); experiment: Biochemical assay for B-Raf (V600E).1 (coupled pyruvate kinase/lactate dehydrogenase); settings: read-out: BRAF V600E.1 IC50
T3 construct: B-Raf (V600E) residues 416-766 with a; GST (N); purchased SignalChem
T3 sequence (P15056 416-766 V600E): as the sequence (P15056 416-766) above, with V185E counted along it
Procedure, shortened: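 0.03 nM B-Raf(V600E) phosphorylating 30.1 nM MEK at 1 mM ATP, pH 7.5, coupled to PK/LDH, with NADH oxidation followed at 340 nm for 6 h at 30 °C. Rates taken from the 3-4 h window. IC50 from a four-parameter fit of percent inhibition.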

H2405 cells = experiment: H2405 cell proliferation assay (1), resazurin, 96-well; format: cell-based; settings: Homo sapiens, NCI-H2405, inhibition of cell proliferation
Experimental: H2405 Cell Proliferation Assay (1)
H2405 cells (catalog #CRL-5944) are obtained from the American Type Culture Collect (ATTC, Manassas, VA). Briefly, cells were grown in RPMI 1640 supplemented with 5% characterized fetal bovine serum (Invitrogen, Carlsbad, CA) and 1% Penicillin/Streptomycin/L-Glutamine at 37° C., 5% CO2, and 95% humidity. Cells are expanded until reaching 70-95% confluency at which point they are subcultured or harvested for assay use. A serial dilution of test compound is dispensed into a 96-well black clear bottom plate in triplicate. Three thousand cells are added per well in 200 μL complete growth medium in the 96-well plate. Plates are incubated for 67-72 hours at 37° C., 5% CO2, and 95% humidity. At the end of the incubation, 40 μL of a 440 μM solution of resazurin (Sigma, St. Louis, MO) in PBS is added to each well of the plate and plates are incubated for an additional 5-6 hours at 37° C., 5% CO2, and 95% humidity. Plates are read on a Synergy2 or equivalent reader (Biotek, Winooski VT) using an excitation of 540 nm and an emission of 600 nm. Data is analyzed using Prism software (GraphPad, San Diego, CA) to calculate IC50 values.

T1 sequence (P10398 with tags, fused parts or gaps Y301D/Y302D): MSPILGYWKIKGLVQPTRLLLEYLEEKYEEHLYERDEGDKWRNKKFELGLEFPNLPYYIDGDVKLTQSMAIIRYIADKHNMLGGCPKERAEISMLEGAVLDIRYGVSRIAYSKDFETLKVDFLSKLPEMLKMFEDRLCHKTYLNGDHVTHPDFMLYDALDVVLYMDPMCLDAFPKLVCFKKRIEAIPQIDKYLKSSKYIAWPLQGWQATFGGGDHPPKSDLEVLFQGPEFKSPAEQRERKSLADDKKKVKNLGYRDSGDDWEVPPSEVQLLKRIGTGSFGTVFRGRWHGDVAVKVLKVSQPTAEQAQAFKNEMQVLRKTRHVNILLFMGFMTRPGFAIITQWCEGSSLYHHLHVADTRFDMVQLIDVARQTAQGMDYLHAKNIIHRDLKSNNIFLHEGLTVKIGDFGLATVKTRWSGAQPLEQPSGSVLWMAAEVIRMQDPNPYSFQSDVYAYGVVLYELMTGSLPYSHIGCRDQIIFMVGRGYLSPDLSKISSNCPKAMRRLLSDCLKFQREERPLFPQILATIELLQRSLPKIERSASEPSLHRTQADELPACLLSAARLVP

| SMILES | pIC50 (A-Raf kinase) | pIC50 (B-Raf kinase) | pIC50 (B-Raf (V600E) kinase) | pIC50 (H2405 cells) |
| --- | --- | --- | --- | --- |
| Cc1ncc(NC(=O)NC[C@H](O)C(C)(C)C)cc1-c1ccnc(-c2ccnc(NC(=O)C3CC3)c2)c1 [Example 102] | < 6.00 | ≥ 7.00 | ≥ 7.00 | 5.00 to 6.00 |
| Cc1cc(F)c(NC(=O)NCCC(C)(C)F)cc1-c1cccc(-c2ccnc3[nH]ncc23)c1 [Example 100] | < 6.00 | ≥ 7.00 | ≥ 7.00 | 5.00 to 6.00 |
| CNC(=O)c1cc(-c2cnnc(-c3cc(NC(=O)NCCC(C)(C)OC)cnc3C)c2)ccn1 [Example 154] | < 6.00 | < 6.00 | ≥ 7.00 | 5.00 to 6.00 |
| COC(=O)Nc1cc(-c2cc(-c3cc(NC(=O)NCCC(C)(C)F)cnc3C)cc(OCCO)n2)ccn1 [Example 165] | < 6.00 | ≥ 7.00 | ≥ 7.00 | 6.30 to 7.00 |
| COC[C@@H]1CCN(C(=O)Nc2cc(-c3cc(-c4ccnc(NC(=O)OC)c4)cnn3)c(C)cc2F)C1 [Example 149] | < 6.00 | 6.00 to 6.30 | ≥ 7.00 | 5.00 to 6.00 |
| COC(C)(C)CCNC(=O)Nc1cc(-c2cc(-c3ccnc(NC(=O)C4CC4)c3)cnn2)c(C)cc1F [Example 142] | < 6.00 | ≥ 7.00 | ≥ 7.00 | 6.00 to 6.30 |
| CCC(C)CCNC(=O)Nc1cnc(C)c(-c2ccnc(-c3ccnc(NC(=O)C4CC4)c3)c2)c1 (stereo not shown) [Example 124] | < 6.00 | ≥ 7.00 | ≥ 7.00 | 5.00 to 6.00 |
| COC(C)(C)CCNC(=O)Nc1cnc(C)c(-c2cc(-c3ccnc(NC(=O)C4CC4)c3)cnn2)c1 [Example 121] | < 6.00 | 6.30 to 7.00 | ≥ 7.00 | 5.00 to 6.00 |
| COC(=O)Nc1nccc(-c2cc(OCCO)cc(-c3cc(NC(=O)NCCC4(C)CC4)c(F)cc3C)c2)n1 [Example 122] | < 6.00 | ≥ 7.00 | ≥ 7.00 | 6.00 to 6.30 |
| Cc1cc(F)c(NC(=O)NCCC(F)F)cc1-c1cc(OCCO)nc(-c2ccnc(NC(=O)C3CC3)c2)c1 [Example 105] | 6.30 to 7.00 | ≥ 7.00 | ≥ 7.00 | 6.00 to 6.30 |
| COC(=O)Nc1cc(-c2nccc(-c3cc(NC(=O)NCCC(C)(C)F)c(F)cc3C)n2)ccn1 [Example 147] | < 6.00 | ≥ 7.00 | ≥ 7.00 | 5.00 to 6.00 |
| COC(=O)Nc1cc(-c2nccc(-c3cc(NC(=O)NCCC(C)(C)OC)c(F)cc3C)n2)ccn1 [Example 129] | < 6.00 | ≥ 7.00 | ≥ 7.00 | 5.00 to 6.00 |
| Cc1ncc(NC(=O)NCCC2(C)CC2)cc1-c1ccnc(-c2ccnc(NC(=O)C3(C#N)CC3)c2)c1 [Example 169] | < 6.00 | ≥ 7.00 | ≥ 7.00 | 6.30 to 7.00 |
| CNC(=O)c1cc(-c2cnnc(-c3cc(NC(=O)NCCC(C)(C)OC)c(F)cc3C)c2)ccn1 [Example 123] | < 6.00 | < 6.00 | ≥ 7.00 | 5.00 to 6.00 |
| Cc1cc(F)c(NC(=O)NCCC(C)(C)F)cc1-c1cccc(-c2cc(NC(=O)C3CC3)ncn2)c1 [Example 127] | 6.30 to 7.00 | ≥ 7.00 | ≥ 7.00 | 5.00 to 6.00 |
| COC[C@H]1CCN(C(=O)Nc2cc(-c3cc(-c4ccnc(NC(=O)OC)c4)cnn3)c(C)cc2F)C1 [Example 148] | < 6.00 | 6.00 to 6.30 | ≥ 7.00 | 5.00 to 6.00 |
| Cc1cc(F)c(NC(=O)NCCC(C)(C)F)cc1-c1cc(-c2ccnc(NC(=O)C3CC3)c2)cnn1 [Example 139] | < 6.00 | ≥ 7.00 | ≥ 7.00 | 6.00 to 6.30 |
| Cc1ncc(NC(=O)NCCC2(C)CC2)cc1-c1ccnc(-c2ccnc(NC(=O)C3CC3)c2)c1 [Example 118] | < 6.00 | ≥ 7.00 | ≥ 7.00 | 6.00 to 6.30 |
| COC(=O)Nc1cc(-c2nccc(-c3cc(NC(=O)NCCC4(C)CC4)cnc3C)n2)ccn1 [Example 135] | < 6.00 | 6.30 to 7.00 | ≥ 7.00 | 5.00 to 6.00 |

| SMILES | pIC50 (A-Raf kinase) | pIC50 (B-Raf kinase) | pIC50 (B-Raf (V600E) kinase) | pIC50 (H2405 cells) |
| --- | --- | --- | --- | --- |
| Cc1cc(F)c(NC(=O)NCCC2(C)CC2)cc1-c1cnnc(-c2ccnc(NC(=O)C3CC3)c2)c1 [Example 168] | 6.00 to 6.30 | ≥ 7.00 | ≥ 7.00 | ≥ 7.00 |
| COC(=O)Nc1cc(-c2ccnc(-c3cc(NC(=O)NCCC(C)(C)OC)c(F)cc3C)n2)ccn1 [Example 171] | < 6.00 | ≥ 7.00 | ≥ 7.00 | 5.00 to 6.00 |
| CNC(=O)c1cc(-c2cnnc(-c3cc(NC(=O)NCCC(C)(C)F)c(F)cc3C)c2)ccn1 [Example 132] | < 6.00 | 6.30 to 7.00 | ≥ 7.00 | 5.00 to 6.00 |
| COC(=O)Nc1cc(-c2cccc(-c3cc(NC(=O)NCCC4(OC)CC4)cnc3C)c2)ncn1 [Example 138] | < 6.00 | 6.30 to 7.00 | ≥ 7.00 | 5.00 to 6.00 |
| COC(=O)Nc1cc(-c2nc(OCCO)cc(-c3cc(NC(=O)NC4CC(C)(C)C4)c(F)cc3C)n2)ccn1 [Example 158] | < 6.00 | ≥ 7.00 | ≥ 7.00 | ≥ 7.00 |
| Cc1ncc(NC(=O)NC2CC(C)(C)C2)cc1-c1cc(OCCO)nc(-c2ccnc(NC(=O)C3CC3)c2)n1 [Example 144] | < 6.00 | ≥ 7.00 | ≥ 7.00 | 6.30 to 7.00 |
| COC1(CCNC(=O)Nc2cnc(C)c(-c3ccnc(-c4ccnc(NC(=O)C5CC5)c4)n3)c2)CC1 [Example 137] | < 6.00 | 6.30 to 7.00 | ≥ 7.00 | 5.00 to 6.00 |
| Cc1cc(F)c(NC(=O)NCCC(C)(C)C)cc1-c1cc(-c2ccnc(NC(=O)C3CC3)c2)cnn1 [Example 131] | 6.30 to 7.00 | ≥ 7.00 | ≥ 7.00 | 6.30 to 7.00 |
| Cc1ccc(NC(=O)NCCC(C)(C)C)cc1-c1cc(N2CCOCC2)nc(N2CCOCC2)c1 [Example 4] | < 6.00 | ≥ 7.00 | ≥ 7.00 | 6.30 to 7.00 |
| COC(=O)Nc1cc(-c2cc(-c3cc(NC(=O)NCCC(C)(C)C)cnc3C)ccn2)ccn1 [Example 109] | < 6.00 | ≥ 7.00 | ≥ 7.00 | 5.00 to 6.00 |
| Cc1ncc(NC(=O)NCCC2(C)CC2)cc1-c1cc(OCCO)nc(-c2ccnc3c2CC(=O)N3)c1 [Example 112] | < 6.00 | ≥ 7.00 | ≥ 7.00 | 5.00 to 6.00 |
| COC1(CCNC(=O)Nc2cc(-c3ccnc(-c4ccnc(NC(=O)C5CC5)c4)n3)c(C)cc2F)CC1 [Example 117] | 6.30 to 7.00 | ≥ 7.00 | ≥ 7.00 | 6.30 to 7.00 |
| Cc1ncc(NC(=O)NCCC(C)(C)F)cc1-c1ccnc(-c2ccnc(NC(=O)C3CC3)c2)n1 [Example 136] | < 6.00 | ≥ 7.00 | ≥ 7.00 | 5.00 to 6.00 |
| COC(=O)Nc1cc(-c2cnnc(-c3cc(NC(=O)NCCC(C)(C)OC)c(F)cc3C)c2)ccn1 [Example 140] | < 6.00 | 6.30 to 7.00 | ≥ 7.00 | 5.00 to 6.00 |
| Cc1ncc(NC(=O)NCCC(C)(C)C)cc1-c1cc(-c2ccnc(NC(=O)C3CC3)c2)cnn1 [Example 120] | < 6.00 | ≥ 7.00 | ≥ 7.00 | 5.00 to 6.00 |
| COC(=O)Nc1cc(-c2cc(-c3cc(NC(=O)NCCC(C)(C)OC)c(F)cc3F)ccn2)ccn1 [Example 163] | < 6.00 | 6.30 to 7.00 | ≥ 7.00 | 5.00 to 6.00 |
| Cc1ncc(NC(=O)NCCC2(C)CC2)cc1-c1ccnc(-c2ccnc(NC(=O)C3CC3)c2)n1 [Example 107] | 6.00 to 6.30 | ≥ 7.00 | ≥ 7.00 | 6.30 to 7.00 |
| Cc1cc(F)c(NC(=O)NCCC2(C)COC2)cc1-c1cc(OCCO)nc(-c2ccnc3[nH]ncc23)c1 [Example 110] | < 6.00 | 6.30 to 7.00 | ≥ 7.00 | 5.00 to 6.00 |
| Cc1ccc(NC(=O)Nc2cccc(C(F)(F)F)c2)cc1-c1cc(OCCO)nc(N2CCOCC2)c1 [Example 3, 1-(3-(2-(2-hydroxyethoxy)-6-morpholinopyridin-4-yl)-4-methylphenyl)-3-(3-(trifluoromethyl)phenyl)urea] | 6.30 to 7.00 | ≥ 7.00 | ≥ 7.00 |  |
